Measured values reported in US20250281478A1, “METHODS FOR PREVENTING OR TREATING KIDNEY DISEASES” (JEAMOON BEIJING CO., LTD., priority 2022, published 2025).

Columns and labels:
[1] = system: mice with adenine-induced renal failure; assay: Serum creatinine (CREA) in adenine-induced renal failure mice; format: in vivo, C57BL/6N mice; conditions: for CREA after modeling for 3 weeks (after drug administration for 2 weeks) / CREA after modeling for 1 week (before drug administration): mean ± SD
Protocol: (§1) • a) Control group: Fed with adenine-free feed; other procedures were the same as those in the model group. • b) Model group: Fed with feed containing 0.25% adenine for modelling. • c) LY-10 mg/kg group: Model+LY2922470 (10 mg/kg, p.o., QD). • d) LY-30 mg/kg group: Model+LY2922470 (30 mg/kg, p.o., QD). • e) LY-60 mg/kg group: Model+LY2922470 (60 mg/kg, p.o., QD). • f) TAK875 group: Model+TAK875 (30 mg/kg, p.o., QD).
(§2) Except for the control group, all other mice were fed with a diet containing 0.25% adenine for modelling. The control group was fed with a normal diet. All mice were allowed free access to food. One week after modeling, each group of mice was administered the respective treatment via oral gavage once daily in the afternoon for two consecutive weeks. The control group and the model group received vehicle under a same condition. The adenine-containing diet was continuously administered for modeling throughout the treatment period until the end of the experiment. The physical condition of the mice was monitored, and body weight was measured and recorded weekly. Blood samples were collected from the orbital venous plexus at 1 week (post-modeling) and 3 weeks (after 2 weeks of treatment). Serum was separated for the measurement of serum creatinine (CRE) and blood urea nitrogen (BUN). At the end of the two-week treatment, renal function of each group was assessed using a TGFR renal function monitoring and smart analysis system. After testing, tissues were collected from the mice to confirm the efficacy of the treatment.
(§3) Statistical analyses were performed using GraphPad Prism 8.0 software. Continuous data of each group were expressed as mean+SD. One-way ANOVA was used for multi-group comparisons, and Student's t-test was used for comparisons between two groups. A p-value<0.05 was considered statistically significant. For categorical data, chi-square tests were used to compare between groups, with p<0.05 indicating a statistically significant difference.
(§4) Mice were fed a 0.25% adenine-containing diet. After one week, the mice were treated with LY2922470 or TAK875. During the treatment period, the adenine-containing diet was continued for modeling. After three weeks of adenine feeding (i.e., two weeks of drug administration), blood samples were collected from the mice, and serum was isolated for CREA and BUN measurements.

[2] = system: high glucose-induced HK-2 cells; assay: RT-PCR of fibrosis markers in high glucose-induced HK-2 cells; format: cell-based, human; conditions: 25 mM D-glucose + LY2922470 10, 50, 500 nM, 48 hours, FIG. 8
Protocol: • Group A: Control • Group B: HG (25 mM) • Group C: HG (25 mM)+LY (10 nM) • Group D: HG (25 mM)+LY (50 nM) • Group E: HG (25 mM)+LY (500 nM)
(§5) HK-2 cells were cultured in MEM supplemented with 10% FBS and 1% penicillin-streptomycin solution. The HK-2 cells were taken from liquid nitrogen and quickly thawed in a 37° C. water bath, gently agitated to thaw the cryopreservation medium. After thawing, the cell suspension was transferred to a centrifuge tube containing 3 mL of culture medium and centrifuged at 1000 rpm for 5 min at room temperature to collect the cells. The supernatant was discarded. The cell pellet was resuspended in complete medium (10% FBS) and seeded into culture dishes. The cells were gently pipetted to ensure uniform distribution and incubated at 37° C. with 5% CO2 and saturated humidity.
Once cells reached 40%-50% confluency, they were treated according to the grouping described above: Group A received normal HK-2 culture; Group B was treated with 25 mM D-glucose (high glucose); Group C was treated with 25 mM D-glucose and 10 nM LY2922470; Group D was treated with 25 mM D-glucose and 50 nM LY2922470; and Group E was treated with 25 mM D-glucose and 500 nM LY2922470. After 48 hours of culture, samples were collected from each group for RT-PCR analysis.

[3] = system: mice with sustained adenine-induced renal failure; assay: Glomerular filtration rate in mice with sustained adenine-induced renal failure (TGFR system); format: in vivo, C57BL/6N mice; conditions: 3 weeks continuous 0.25% adenine diet, FIG. 4
Protocol: as §1, §2, §3
One week later, LY2922470 or TAK875 was administrated for treatment. […]

[4] = system: TGF-β1-induced HK-2 cells; assay: RT-PCR of fibrosis markers in TGF-β1-induced HK-2 cells; format: cell-based, human; conditions: 10 ng/ml TGF-β1 + LY2922470 10, 50, 500 nM, 48 hours, FIG. 7
Protocol: • Group A: Control • Group B: TGF-β1 (10 ng/ml) • Group C: TGF-β1 (10 ng/ml)+LY (10 nM) • Group D: TGF-β1 (10 ng/ml)+LY (50 nM) • Group E: TGF-1 (10 ng/ml)+LY (500 nM)
as §5
HK-2 cells in a logarithmic growth phase and with good viability were seeded into 24-well plates at a density of 1×10^5 cells/well. Once the cells reached 40-50% confluence, treatments were applied according to the grouping described above: Group A: HK-2 cells were cultured normally; Group B was treated with 10 ng/ml TGF-β1; Group C was treated with 10 ng/ml TGF-β1 and 10 nM LY2922470; Group D was treated with 10 ng/ml TGF-β1 and 50 nM LY2922470; and Group E was treated with 10 ng/ML TGF-β1 and 500 nM LY2922470. […]

[5] = system: mice with adenine-induced renal failure; assay: Blood urea nitrogen (BUN) in adenine-induced renal failure mice; format: in vivo, C57BL/6N mice; conditions: for BUN after modeling for 3 weeks (after drug administration for 2 weeks) / BUN after modeling for 1 week (before drug administration): mean ± SD
Protocol: as §1, §2, §3, §4

[6] = system: mice with two-week adenine-induced renal failure; assay: Glomerular filtration rate in mice with two-week adenine-induced renal failure; format: in vivo, C57BL/6N mice; conditions: adenine diet replaced with normal chow after two weeks; LY2922470 p.o.; FIG. 5
Description: Therefore, the modeling protocol was redesigned to re-evaluate the therapeutic effect of LY2922470 on renal failure (the adenine diet was replaced with normal chow after two weeks of feeding; other conditions remained unchanged).

[7] = LY2922470 30 mg/kg p.o. QD for 2 weeks
[8] = LY2922470 at different doses p.o. QD for 2 weeks
[9] = based on Tables 2 and 3 (CREA and BUN), p.o.
[10] = baseline of the LY2922470 10 mg/kg group
[11] = baseline of the LY2922470 30 mg/kg group
[12] = baseline of the LY2922470 60 mg/kg group

CC#C[C@@H](CC(=O)O)c1ccc(OCc2ccc(CN3CCCc4cccc(OC)c43)s2)cc1 [LY2922470]
CREA level compared with the model group [1, 7]: significantly decreased
CREA after modeling for 3 weeks (after drug administration for 2 weeks) ([1]; LY2922470 30 mg/kg p.o. QD): 79.67 ± 19.28 µmol/L
CREA level compared with the model group ([1]; LY2922470 60 mg/kg p.o. QD for 2 weeks): significantly decreased
CREA after modeling for 3 weeks (after drug administration for 2 weeks) ([1]; LY2922470 60 mg/kg p.o. QD): 66.47 ± 13.35 µmol/L
Serum CREA level compared with the model group [1, 8]: reduced
Dose with the best effect (CREA, BUN) [1, 9]: 30 mg/kg/day
Doses with therapeutic efficacy (CREA, BUN) [1, 9]: 30 to 60 mg/kg/day
CREA after modeling for 1 week (before drug administration) [1, 10]: 56.14 ± 13.41 µmol/L
CREA after modeling for 1 week (before drug administration) [1, 11]: 54.85 ± 17.55 µmol/L
CREA after modeling for 1 week (before drug administration) [1, 12]: 57.02 ± 11.90 µmol/L
Expression level of Fibronectin (RT-PCR) compared to the high-glucose group [2]: reduced
Expression level of α-SMA (RT-PCR) compared to the high-glucose group [2]: reduced
Renal function (GFR) improvement among the doses [3, 7]: most significant improvement
Renal function (GFR) compared with the model group ([3]; LY2922470 at different doses (10, 30, 60 mg/kg p.o. QD) for 2 weeks): improved
Expression level of Fibronectin (RT-PCR) compared to the TGF-β1 group [4]: dose-dependent decrease
Expression level of α-SMA (RT-PCR) compared to the TGF-β1 group [4]: dose-dependent decrease
BUN level compared with the model group [5, 7]: statistically significant reduction
BUN after modeling for 3 weeks (after drug administration for 2 weeks) ([5]; LY2922470 30 mg/kg p.o. QD): 15.15 ± 4.53 mmol/L
BUN after modeling for 3 weeks (after drug administration for 2 weeks) ([5]; LY2922470 60 mg/kg p.o. QD): 13.85 ± 1.33 mmol/L
Serum BUN level compared with the model group [5, 8]: reduced
BUN after modeling for 1 week (before drug administration) [5, 10]: 10.34 ± 3.55 mmol/L
BUN after modeling for 1 week (before drug administration) [5, 11]: 10.25 ± 3.42 mmol/L
BUN after modeling for 1 week (before drug administration) [5, 12]: 10.40 ± 3.83 mmol/L
Renal function (GFR) compared with the model group [6]: significantly improved
